As usually defined, the melting point is the temperature of the solid-liquid transition.

For one data set, the system named is HCT116 cells. As to the kind of experiment: Inhibition of proliferation of the HCT116 human colon tumor line ([14C]-thymidine incorporation). Type of data set: cell-based. The note with it: HCT-116, 48 hours incubation at 37° C., read-out: Inhibition of HCT116 proliferation IC 50. Summed up: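 HCT116 cells at 5000/well in DMEM with 10% fetal calf serum were treated with compounds up to 10 μM (DMSO ≤0.5%) plus [14C]-thymidine 0.1 μCi/well for 48 h at 37 °C. IC50 is the concentration halving incorporated radioactivity against untreated control.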
In general terms: Incorporation of labelled thymidine or its analogues reports DNA synthesis.

The target of data set [1] is T1, Tubulin purified from pig brains (Sus scrofa, UniProt P02550+P02554).
T1 construct: Tubulin is purified from pig brains according to published methods; from tissue; host or cells: pig brain
As to the kind of experiment: Assessment of the inhibition of tubulin polymerization (turbidimetry at 350 nm). Type of data set: biochemical. Conditions: concentration which inhibits the rate of polymerization by 50%; tubulin 1 mg/ml, 37° C.; read-out: Inhibition of tubulin polymerization IC 50. Summed up:
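Pig brain tubulin, >95% pure after polymerization/depolymerization cycles and phosphocellulose removal of MAPs, used at 10 μm in MES pH 6.8/30% glycerol buffer with 1 mM GTP and 6 mM MgCl2. Compounds at 0.5–10 μm were added before a 6→37 °C shift triggered assembly, followed by turbidity at 350 nm. IC50 is the concentration halving polymerization rate.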

T1 sequence (P02550 whole entry): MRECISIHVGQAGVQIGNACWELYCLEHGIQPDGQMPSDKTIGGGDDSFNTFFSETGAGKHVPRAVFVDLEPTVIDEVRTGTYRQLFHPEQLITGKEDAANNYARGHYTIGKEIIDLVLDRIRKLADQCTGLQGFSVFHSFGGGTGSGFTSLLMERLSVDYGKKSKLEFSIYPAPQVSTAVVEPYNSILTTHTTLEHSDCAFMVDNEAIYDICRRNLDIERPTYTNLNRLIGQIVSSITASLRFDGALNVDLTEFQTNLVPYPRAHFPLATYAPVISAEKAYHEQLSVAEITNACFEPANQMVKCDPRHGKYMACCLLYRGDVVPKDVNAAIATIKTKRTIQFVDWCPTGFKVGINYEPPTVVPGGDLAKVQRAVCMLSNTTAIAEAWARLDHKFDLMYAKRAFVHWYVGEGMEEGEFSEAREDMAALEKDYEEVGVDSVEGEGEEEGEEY
T1 sequence (P02554 whole entry): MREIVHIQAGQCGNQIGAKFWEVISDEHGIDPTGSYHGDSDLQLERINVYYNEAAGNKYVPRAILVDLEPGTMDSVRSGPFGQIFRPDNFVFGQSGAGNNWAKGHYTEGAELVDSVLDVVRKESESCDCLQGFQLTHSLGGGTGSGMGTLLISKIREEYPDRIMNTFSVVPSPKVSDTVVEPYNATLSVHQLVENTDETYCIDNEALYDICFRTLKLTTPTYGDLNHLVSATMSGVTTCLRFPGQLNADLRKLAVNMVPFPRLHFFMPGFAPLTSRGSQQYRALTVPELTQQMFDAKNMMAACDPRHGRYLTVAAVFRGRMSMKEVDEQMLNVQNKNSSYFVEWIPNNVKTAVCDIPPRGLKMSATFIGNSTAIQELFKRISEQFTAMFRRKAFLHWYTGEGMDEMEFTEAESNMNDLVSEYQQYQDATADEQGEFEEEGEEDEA

On to `NC(=O)c1cccc(N2CCN(C(=O)c3nc(O)[nH]c3-c3ccccc3)CC2)c1` [Example 51, 3-[4-(2-Hydroxy-4-phenyl-1H-imidazol-5-yl-carbonyl)piperazin-1-yl]benzamide], for which the melting point is 202 °C. The IC50 in the data set with HCT116 cells came out at 1360 nM. Also, the IC50 in data set [1] was determined as 500 nM.

Compound `N#Cc1cccc(N2CCN(C(=O)c3[nH]c(S)nc3-c3ccccc3)CC2)c1` [Example 52, 3-[4-(2-Mercapto-4-phenyl-1H-imidazol-5-yl-carbonyl)piperazin-1-yl]-benzonitrile] showed a melting point of 247 °C. Besides, in the data set on HCT116 cells, the IC50 was found to be 100 nM. Further, the IC50 in data set [1] came out at 400 nM.

Turning to `COc1cc(OC)cc(N2CCN(C(=O)c3ccn(CCO)c3-c3ccccc3)CC2)c1` [Example 53, [4-(3,5-Dimethoxyphenyl)piperazin-1-yl][1-(2-hydroxyethyl)-2-phenyl-1H-pyrrol-3-yl]methanone], the melting point is 157 °C. In the data set on HCT116 cells, the IC50 is 46 nM. Also, in data set [1], the IC50 stood at 810 nM.

`O=C(c1[nH]c(O)nc1-c1ccccc1)N1CCN(c2cccc(CO)c2)CC1` [Example 57, [4-(3-Hydroxymethylphenyl)piperazin-1-yl](2-hydroxy-4-phenyl-1H-imidazol-5-yl)methanone]: the melting point worked out at 173 °C. Moreover, in the data set on HCT116 cells, the IC50 amounted to 17 nM. Also, the IC50 in data set [1] was 795 nM.

For the compound `N#Cc1cccc(N2CCN(C(=O)c3cc[nH]c3-c3ccccc3)CC2)c1` [Example 74, 3-[4-(2-Phenyl-1H-pyrrol-3-ylcarbonyl)piperazin-1-yl]benzonitrile], the melting point worked out at 80 °C. Also, in the data set on HCT116 cells, the IC50 was determined as 52 nM. In data set [1], the IC50 is 3050 nM.

Compound `N#Cc1cccc(N2CCN(C(=O)c3[nH]c(O)nc3-c3ccccc3)CC2)c1` [Example 75, 3-[4-(2-Hydroxy-4-phenyl-1H-imidazol-5-ylcarbonyl)piperazin-1-yl]-benzonitrile] showed a melting point of 198 °C. The IC50 in the data set with HCT116 cells stood at 11.5 nM. The IC50 in data set [1] was 1010 nM.

In turn, `N#Cc1cccc(N2CCN(C(=O)c3ccn(CCO)c3-c3ccccc3)CC2)c1` [Example 81, 3-[4-(1-Hydroxyethyl-2-phenyl-1H-pyrrol-3-ylcarbonyl)piperazin-1-yl]-benzonitrile] displayed a melting point of 158 °C. Further, in the data set on HCT116 cells, the IC50 was found to be 307 nM. Also, in data set [1], the IC50 stood at 2400 nM.
